Measurements reported in patent publication US11786494B2, “Methods of modulation of branched chain acids and uses thereof” (Baylor College of Medicine, priority 2009, dated 2023).

Experiments:
BCKDC [1] = biological target: T1, BCKDC (Homo sapiens, UniProt P12694+P21953); test: Leucine oxidation in lymphoblast cells in presence of CIC; type: cell-based; parameters: Transformed lymphoblast cell lines were available from all 5 MSUD patients and from 2 controls to measure BCKDC activity; endogenous in cells; details: control lymphoblasts, 1 mM phenylbutyrate 48 h, 1 mM CIC in the assay
T1 sequence (P12694 46-445): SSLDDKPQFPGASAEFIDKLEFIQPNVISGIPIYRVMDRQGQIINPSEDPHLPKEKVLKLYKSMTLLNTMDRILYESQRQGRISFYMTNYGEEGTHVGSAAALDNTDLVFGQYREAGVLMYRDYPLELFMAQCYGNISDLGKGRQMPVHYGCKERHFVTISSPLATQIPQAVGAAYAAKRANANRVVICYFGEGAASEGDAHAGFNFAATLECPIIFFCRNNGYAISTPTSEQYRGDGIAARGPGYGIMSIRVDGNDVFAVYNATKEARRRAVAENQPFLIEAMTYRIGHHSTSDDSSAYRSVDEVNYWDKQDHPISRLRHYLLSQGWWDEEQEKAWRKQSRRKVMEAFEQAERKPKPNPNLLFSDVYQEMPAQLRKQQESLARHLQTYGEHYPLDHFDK
T1 sequence (P21953 51-392): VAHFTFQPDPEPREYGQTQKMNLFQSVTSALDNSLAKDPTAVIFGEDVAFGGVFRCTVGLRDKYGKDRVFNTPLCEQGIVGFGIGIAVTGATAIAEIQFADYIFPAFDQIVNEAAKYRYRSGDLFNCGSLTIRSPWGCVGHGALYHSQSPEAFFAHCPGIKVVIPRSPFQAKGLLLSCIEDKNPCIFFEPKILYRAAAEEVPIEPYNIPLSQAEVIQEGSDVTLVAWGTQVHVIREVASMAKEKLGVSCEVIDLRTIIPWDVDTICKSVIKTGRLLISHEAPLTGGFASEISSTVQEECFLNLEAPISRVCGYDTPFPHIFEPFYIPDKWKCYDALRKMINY
Experimental: (§1) FIGS. 8A-8C. FIGS. 8A and 8B show leucine oxidation in presence of CIC in lymphoblast cells from control subjects (C-660, C-661) and MSUD patients (P-1, -2, -3, -4, -5) untreated or treated with 1 mM phenylbutyrate for 48 h. Leucine oxidation was measured by using radioactive assay as described in Materials and Methods and is expressed in pmol CO2 released/min/mg protein. CIC was added to all reactions in 1 mM concentration. Values are means±SD (n=3), * p≥0.05, **p≥0.01. […] Images are representative of two independent experiments.
Because phenylbutyrate affects E1α phosphorylation state in vivo (see FIG. 5), leucine oxidation was measured in the same cell lines as in FIG. […] with CIC in the assay. […] Changes in BCAT isoenzyme activity also impacts BCKA production, in specific cases. All patient cell lines accumulated more KIC than observed in control cell lines.

BCKDC [2] = test: Leucine oxidation in lymphoblast cell lines without CIC; type: cell-based, human
Experimental: as §1, with “7A-7C.” for “8A-8C.”, “7A” for “8A”, “7B” for “8B”, “oxidation” for “oxidation in presence of CIC”, “protein.” for “protein. CIC was added to all reactions in 1 mM concentration.”, “three” for “two”
Following treatment with phenylbutyrate, enzyme activity in control and patients' lymphoblast cell lines was measured. Transformed lymphoblast cell lines were available from all 5 MSUD patients and from 2 controls to measure BCKDC activity. Lymphoblasts were incubated for 48 h with and without 1 mM phenylbutyrate (a lower concentration of phenylbutyrate was used because of higher sensitivity of these cells as compared to fibroblasts to the drug) then BCKDC activity was measured without α-chloroisocaproate addition (CIC). […] Thus, in cells from the two patients with E2 mutations (Table 7), activation of enzyme activity results from inhibition of phosphorylation state of E1α, in specific embodiments of the invention.

BCKDC [3] = biological target: T1, BCKDC; test: Overall BCKDC activity assay (reconstituted E1, lip-E2, E3; NADH formation); type: biochemical; details: Activity of BCKDC, [+] Phenylbutyrate
Experimental: To determine the effect of phenylbutyrate on individual BCAA catabolic enzymes, activities of mitochondrial branched chain amino transferase (BCATm) and BCKDC enzymes were measured with and without phenylbutyrate using purified recombinant enzymes. BCATm generates the BCKA products that are elevated in MSUD and are the substrates for BCKDC. BCATm activity was measured at pH 8.0 and 298 K as described in Example 2. Kinetics of the E1 decarboxylase reaction with and without phenylbutyrate were determined in the presence of an artificial electron acceptor 2, 6-dichlorophenolindophenol (DCPIP). The assay mixture contained 100 mM potassium phosphate, pH 7.5, 2.0 mM MgCl2, 0.2 mM thiamin diphosphate (ThDP) and 0.1 mM DCPIP. The rate of decarboxylation at 30° C. was measured by monitoring the reduction of the dye at 600 nm (24, 25). For the overall BCKDC activity assay, the enzymes were exchanged into phosphate buffer (30 mM potassium phosphate, pH 7.5) containing 5 mM DTT using a PD-10 column and the enzyme concentrations were calculated from the absorption maxima at 280 nm. […] The overall reaction was monitored by formation of NADH at 340 nm. The apparent rate constants (kapp) at different substrate concentrations for all of the above assays were determined from the absorption changes at the individual wavelength maximum. […]

[4] = cited from earlier work

- leucine oxidation (BCKDC [1]): increased
- kcat, KMV (BCKDC [3]): 3.767 ± 0.3 s⁻¹
Compound: O=C([O-])CCCc1ccccc1.[Na+] [phenylbutyrate, sodium 4-phenylbutyrate]
- leucine oxidation (BCKDC [2]; MSUD patient lymphoblasts with the exception of patient 5, 1 mM for 48 h): significantly enhanced
- leucine oxidation (BCKDC [2]; control lymphoblasts (C-660, C-661), 1 mM for 48 h): significantly enhanced
- leucine oxidation increase (BCKDC [2]; patient 5 lymphoblasts, 1 mM for 48 h): not significant
- time at which measurable plasma levels are detected ([4]; after oral administration of phenylbutyrate): 15 min
- Peak concentrations of phenylbutyrate ([4]; oral administration): approximately 1 mmol/1
- time at which peak concentrations are reached ([4]; oral administration): 1 h
- elimination half-life ([4]; oral phenylbutyrate, estimated): 48 min
- fraction of the drug excreted by the kidneys as the conjugated product PAG ([4]; within 24 h, most subjects): 80-100%
